Patent US5202315A, “Cephalosporin compounds” (Lucky, Ltd., priority 1989, dated 1993)
Converted amounts (≈) assume the structure as drawn. Read-outs that look alike come from different tables or passages of the source.

Key:
[1] = tested on: Klebsiella pneumoniae; assay: Antibacterial activity against clinically isolated strains, MIC; type: cell-based; settings: 10 clinical isolates, broth microdilution test; for MIC90: read-out: MIC 90%
[2] = In-vivo absorbency (plasma concentrations & pharmacokinetic parameters); parameters: species or system SD rat (male); settings: plasma, SD male rat, iv 20 mg/kg, read-out: Plasma Conc.
[3] = tested on: Pseudomonas aeruginosa; assay: Antibacterial activity against clinically isolated strains, MIC; type: cell-based
[4] = tested on: Staphylococcus aureus methicillin resistant; assay: as above; type: cell-based; settings: methicillin resistant, 7 clinical isolates, broth microdilution test; for MIC90: read-out: MIC 90%
[5] = tested on: Staphylococcus aureus methicillin susceptible; assay: as above; type: cell-based; settings: methicillin susceptible, 42 clinical isolates, broth microdilution test; for MIC90: read-out: MIC 90%
[6] = tested on: Staphylococcus aureus ATCC 10537; assay: Antibacterial activity, MIC; type: cell-based; settings: ATCC10537, ATCC 10537, agar two-fold dilution, 37° C., 20 hours, read-out: MIC
How it was run: (§1)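 MIC by two-fold serial dilution in Mueller-Hinton agar; inoculum 2 μl at 10^7 CFU/ml; 37 °C, 20 h.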

[7] = tested on: Pseudomonas aeruginosa ATCC 25619; assay: Antibacterial activity, MIC; type: cell-based; settings: ATCC25619, ATCC 25619, agar two-fold dilution, 37° C., 20 hours, read-out: MIC
How it was run: as §1

[8] = tested on: Staphylococcus aureus ATCC 6538p; assay: Antibacterial activity, MIC; type: cell-based; settings: ATCC6538P, ATCC 6538p, agar two-fold dilution, 37° C., 20 hours, read-out: MIC
How it was run: as §1

[9] = tested on: Shigella sonnei ATCC 11060; assay: Antibacterial activity, MIC; type: cell-based; settings: ATCC11060, ATCC 11060, agar two-fold dilution, 37° C., 20 hours, read-out: MIC
How it was run: as §1

[10] = tested on: Salmonella typhimurium ATCC 14028; assay: Antibacterial activity, MIC; type: cell-based; settings: Salmonella enterica; ATCC 14028; agar two-fold dilution, 37° C., 20 hours; read-out: MIC
How it was run: as §1

[11] = tested on: Pseudomonas aeruginosa ATCC 10145; assay: Antibacterial activity, MIC; type: cell-based; settings: ATCC10145, ATCC 10145, agar two-fold dilution, 37° C., 20 hours, read-out: MIC
How it was run: as §1

[12] = tested on: Morganella morganii ATCC 8076h; assay: Antibacterial activity, MIC; type: cell-based; settings: ATCC8076H, agar two-fold dilution, 37° C., 20 hours
How it was run: as §1

[13] = tested on: Providencia rettgeri ATCC 9250; assay: Antibacterial activity, MIC; type: cell-based; settings: ATCC9250, agar two-fold dilution, 37° C., 20 hours
How it was run: as §1

[14] = tested on: Pseudomonas aeruginosa ATCC 27853; assay: Antibacterial activity, MIC; type: cell-based; settings: ATCC27853, ATCC 27853, agar two-fold dilution, 37° C., 20 hours, read-out: MIC
How it was run: as §1

[15] = tested on: Micrococcus luteus ATCC 9341; assay: Antibacterial activity, MIC; type: cell-based; settings: ATCC9341, ATCC 9341, agar two-fold dilution, 37° C., 20 hours, read-out: MIC
How it was run: as §1

[16] = tested on: Bacillus megaterium ATCC 9885; assay: Antibacterial activity, MIC; type: cell-based; settings: Priestia megaterium, ATCC9885; ATCC 9885; agar two-fold dilution, 37° C., 20 hours; read-out: MIC
How it was run: as §1

[17] = tested on: Proteus mirabilis ATCC 25933; assay: Antibacterial activity, MIC; type: cell-based; settings: ATCC25933, ATCC 25933, agar two-fold dilution, 37° C., 20 hours, read-out: MIC
How it was run: as §1

[18] = tested on: Bacillus cereus ATCC 11778; assay: Antibacterial activity, MIC; type: cell-based; settings: ATCC11778, ATCC 11778, agar two-fold dilution, 37° C., 20 hours, read-out: MIC
How it was run: as §1

[19] = tested on: Staphylococcus epidermidis ATCC 12228; assay: Antibacterial activity, MIC; type: cell-based; settings: ATCC12228, ATCC 12228, agar two-fold dilution, 37° C., 20 hours, read-out: MIC
How it was run: as §1

[20] = tested on: Shigella flexneri ATCC 11836; assay: Antibacterial activity, MIC; type: cell-based; settings: ATCC11836, agar two-fold dilution, 37° C., 20 hours
How it was run: as §1

[21] = tested on: Enterobacter aerogenes ATCC 29751; assay: Antibacterial activity, MIC; type: cell-based; settings: Klebsiella aerogenes, ATCC29751; ATCC 29751; agar two-fold dilution, 37° C., 20 hours; read-out: MIC
How it was run: as §1

[22] = tested on: Klebsiella pneumoniae ATCC 10031; assay: Antibacterial activity, MIC; type: cell-based; settings: ATCC10031, ATCC 10031, agar two-fold dilution, 37° C., 20 hours, read-out: MIC
How it was run: as §1

[23] = tested on: Acinetobacter calcoaceticus ATCC 15473; assay: Antibacterial activity, MIC; type: cell-based; settings: ATCC15473, ATCC 15473, agar two-fold dilution, 37° C., 20 hours, read-out: MIC
How it was run: as §1

[24] = tested on: Serratia marcescens ATCC 27117; assay: Antibacterial activity, MIC; type: cell-based; settings: ATCC27117, ATCC 27117, agar two-fold dilution, 37° C., 20 hours, read-out: MIC
How it was run: as §1

[25] = tested on: Escherichia coli ATCC 25922; assay: Antibacterial activity, MIC; type: cell-based; settings: ATCC25922, agar two-fold dilution, 37° C., 20 hours
How it was run: as §1

[26] = tested on: Proteus vulgaris ATCC 6059; assay: Antibacterial activity, MIC; type: cell-based; settings: ATCC6059, ATCC 6059, agar two-fold dilution, 37° C., 20 hours, read-out: MIC
How it was run: as §1

[27] = In-vivo absorbency (plasma concentrations & pharmacokinetic parameters); parameters: species or system SD rat (male); settings: plasma, SD male rat, iv 20 mg/kg; for concentration at 1 h: 60 min; for concentration at 1 h / concentration at 2 h: read-out: Plasma Conc.; for concentration at 2 h: 120 min; for AUC / half-life: two compartment model; for half-life: rat, iv, 20 mg/kg
From the text: The blood samples from the femoral vein of the rats were taken every hour after administration, and analyzed by bio-assay(agar well method).
Tested animal: SD male Rat (220~340 g)

[28] = 54 clinical isolates, broth microdilution test

## Cc1c(N)nc(SCC2=C(C(=O)[O-])N3C(=O)C(NC(=O)/C(=N\OC(C)(C)C(=O)O)c4csc(N)n4)C3SC2)[n+](C)c1N (stereo not drawn) [Compound I-30]
[1]
  MIC50: 0.13 µg/mL (≈ 0.204 µM)
  MIC90: 0.25 µg/mL (≈ 0.392 µM)
[2]
  concentration at 1 min: 148000 ng/mL
  concentration at 2.5 min: 100000 ng/mL
  concentration at 5 min: 80000 ng/mL
  concentration at 10 min: 54000 ng/mL
  concentration at 20 min: 29000 ng/mL
  concentration at 40 min: 17000 ng/mL
[2]; 150 min
  concentration at 2.5 h: 1300 ng/mL
[3]; [28]
  MIC50: 2 µg/mL (≈ 3.14 µM)
[3]; 54 clinical isolates, broth microdilution test, read-out: MIC 90%
  MIC90: 4 µg/mL (≈ 6.27 µM)
[4]
  MIC50: > 128 µg/mL
  MIC90: > 128 µg/mL
[5]
  MIC50: 2 µg/mL (≈ 3.14 µM)
  MIC90: 4 µg/mL (≈ 6.27 µM)
[6]
  MIC: 2 µg/mL (≈ 3.14 µM)
[7]
  MIC: 2 µg/mL (≈ 3.14 µM)
[8]
  MIC: 4 µg/mL (≈ 6.27 µM)
[9]
  MIC: 0.063 µg/mL (≈ 0.0988 µM)
[10]
  MIC: 0.25 µg/mL (≈ 0.392 µM)
[11]
  MIC: 2 µg/mL (≈ 3.14 µM)
[12]
  MIC: ≤ 0.008 µg/mL
[13]
  MIC: ≤ 0.008 µg/mL
[14]
  MIC: 2 µg/mL (≈ 3.14 µM)
[15]
  MIC: 0.5 µg/mL (≈ 0.784 µM)
[16]
  MIC: 0.5 µg/mL (≈ 0.784 µM)
[17]
  MIC: 0.031 µg/mL (≈ 0.0486 µM)
[18]
  MIC: 128 µg/mL (≈ 201 µM)
[19]
  MIC: 2 µg/mL (≈ 3.14 µM)
[20]
  MIC: 0.031 µg/mL (≈ 0.0486 µM)
[21]
  MIC: 2 µg/mL (≈ 3.14 µM)
[22]
  MIC: 0.063 µg/mL (≈ 0.0988 µM)
[23]
  MIC: 4 µg/mL (≈ 6.27 µM)
[24]
  MIC: 0.13 µg/mL (≈ 0.204 µM)
[25]
  MIC: 0.063 µg/mL (≈ 0.0988 µM)
[26]
  MIC: 0.063 µg/mL (≈ 0.0988 µM)
[27]
  concentration at 1 h: 9600 ng/mL
  concentration at 2 h: 2700 ng/mL
  AUC: 41800 ng·h/mL
[27]; read-out: T1/2 (α)
  half-life: 4 min
[27]; read-out: T1/2 (β)
  half-life: 30 min

## CCC[n+]1c(N)cc(N)nc1SCC1=C(C(=O)[O-])N2C(=O)C(NC(=O)/C(=N\OC(C)C(=O)O)c3csc(N)n3)C2SC1 (stereo not drawn) [Compound I-45]
[1]
  MIC50: 0.13 µg/mL (≈ 0.204 µM)
  MIC90: 0.13 µg/mL (≈ 0.204 µM)
[2]
  concentration at 1 min: 147000 ng/mL
  concentration at 2.5 min: 84000 ng/mL
  concentration at 5 min: 67000 ng/mL
  concentration at 10 min: 52000 ng/mL
  concentration at 20 min: 29000 ng/mL
  concentration at 40 min: 16000 ng/mL
[3]
  MIC90: 16 µg/mL (≈ 25.1 µM)
[3]; [28]
  MIC50: 4 µg/mL (≈ 6.27 µM)
[4]
  MIC50: > 128 µg/mL
  MIC90: > 128 µg/mL
[5]
  MIC50: 2 µg/mL (≈ 3.14 µM)
  MIC90: 2 µg/mL (≈ 3.14 µM)
[6]
  MIC: 2 µg/mL (≈ 3.14 µM)
[7]
  MIC: 1 µg/mL (≈ 1.57 µM)
[8]
  MIC: 2 µg/mL (≈ 3.14 µM)
[9]
  MIC: 0.063 µg/mL (≈ 0.0988 µM)
[10]
  MIC: 0.25 µg/mL (≈ 0.392 µM)
[11]
  MIC: 4 µg/mL (≈ 6.27 µM)
[12]
  MIC: ≤ 0.008 µg/mL
[13]
  MIC: ≤ 0.008 µg/mL
[14]
  MIC: 2 µg/mL (≈ 3.14 µM)
[15]
  MIC: 0.5 µg/mL (≈ 0.784 µM)
[16]
  MIC: 0.5 µg/mL (≈ 0.784 µM)
[17]
  MIC: 0.063 µg/mL (≈ 0.0988 µM)
[18]
  MIC: 64 µg/mL (≈ 100 µM)
[19]
  MIC: 1 µg/mL (≈ 1.57 µM)
[20]
  MIC: 0.031 µg/mL (≈ 0.0486 µM)
[21]
  MIC: 1 µg/mL (≈ 1.57 µM)
[22]
  MIC: 0.063 µg/mL (≈ 0.0988 µM)
[23]
  MIC: 8 µg/mL (≈ 12.5 µM)
[24]
  MIC: 0.13 µg/mL (≈ 0.204 µM)
[25]
  MIC: 0.063 µg/mL (≈ 0.0988 µM)
[26]
  MIC: 0.063 µg/mL (≈ 0.0988 µM)
[27]
  concentration at 1 h: 11000 ng/mL
  concentration at 2 h: 3600 ng/mL
  AUC: 42900 ng·h/mL
[27]; read-out: T1/2 (α)
  half-life: 4 min
[27]; read-out: T1/2 (β)
  half-life: 38 min
